Test results: patent publication US8778889B2, “Antimicrobial decapeptide oral hygiene treatment” (The United States of America as represented by the …, priority 2003, dated 2014)
Ends that are not written are not given here.

How the values were obtained:
[1] = Interaction (adsorption) with hydroxyapatite discs in artificial saliva; format: physicochemical; conditions: KSL 0.5 mg/ml, 8 untreated HA discs, 37° C.
Procedure: Affinity of KSL to tooth-like materials was assessed by allowing the KSL to interact with HA discs (Size: 0.38″ diameter×0.06-0.08″ thick) in artificial saliva at 37° C. To simulate the tooth surface, the HA discs were pretreated in filtered human saliva for 2 hours (4 HA discs/4 mL of human saliva). Whole human saliva was collected from three healthy male donors in the morning prior to breakfast. After collection, the saliva was immediately centrifuged at 12,000 rpm for 20 min and the supernatant was filter through a 0.45 μm membrane filter. The HA discs, after conditioning with human saliva, were rinsed with artificial saliva and added to 4 ml of KSL solutions (0.5 mg/ml in artificial saliva) at 37° C. As a control, untreated HA discs were directly added to KSL solutions at 37° C. The sample vials were mounted on a rotary wheel with vertical rotation at a speed of 18 cycles/min. Samples were removed at predetermined times, centrifuged and the supernatants were analyzed by RP-HPLC.

[2] = physchem; format: physicochemical; conditions: for half-life at 200 μg/ml: buffer
Procedure: KSL was analyzed by RP-HPLC using a Prosphere C-18 analytical column (4.6×250 mm, Alltech, Deerfield, Ill.) with a Prosphere C-18 guard column (4.6×7.5 mm, Alltech, Deerfield, Ill.). A gradient elution was performed with mobile phase A (0.1% TFA in water) and mobile phase B (0.1% TFA in acetonitrile). KSL was eluted with a linear gradient from 80:20 to 70:30 (mobile phase A:B) for 8 min at a flow rate of 1.0 ml/min. Total run time was 16 min and the injection volume was 40 μl. Chromatograms were recorded by UV detection at 215 nm.
Test solutions of KSL were prepared using a stock peptide solution of 10 mg/ml in deionized water. The degradation of KSL peptide was investigated in sodium acetate (pH 4), sodium phosphate (pH 7.4) and sodium borate (pH 9) buffers at 0.1 M buffer concentration. Each buffer solution containing 200 μg/ml of KSL was incubated in a temperature-controlled oven at 25, 37 and 55° C., respectively. Samples were taken at pre-determined times and analyzed under HPLC conditions described above. The stability of KSL was studied at 37° C. in artificial saliva over a three day period. Artificial saliva was used in the in vitro release studies in an attempt to simulate actual conditions of use. The ingredients of the artificial saliva were as follows: sodium chloride, 0.844 g; potassium chloride, 1.200 g; calcium chloride dihydrate, 0.193 g; magnesium chloride hexahydrate, 0.111 g; potassium phosphate dibasic, 0.342 g; water to make to 1000 ml. The pH was adjusted with hydrochloric acid solution to pH 5.7±0.1 [26].

[3] = system: VRE ATCC #51299; format: cell-based, Enterococci
Text: (§1) As shown in the table below, many drug-resistant pathogens including multidrug-resistant Acinetobacter baumannii (clinical isolates) were susceptible to the bactericidal activity of the newly developed antimicrobial peptides. […] This is shown by their lower MIC and MBC against a number of antibiotic-resistant bacteria including methicillin-resistant Staphylococcus aureus, vancomycin-resistant Enterococci, and multidrug-resistant Acinetobacter baumannii. Many of these resistant strains are involved in nosocomial infections, which affect the immunocompromised and the elderly individuals with weakened defenses. The tests were done in a broth microdilution assay as described in our earlier publication (Concannon et al., 2003).

[4] = system: VRE WRAMC #3; format: cell-based, Enterococci
Text: as §1

[5] = system: VRE WRAMC #6; format: cell-based, Enterococci
Text: as §1

[6] = system: VRE VVRAMC #7; format: cell-based, Enterococci
Text: as §1

[7] = system: A. baumannii WRAMC #2; format: cell-based, Acinetobacter baumannii
Method in brief: (§2)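 Broth microdilution; read-outs MIC and MBC; peptides vs resistant clinical strains.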

[8] = system: A. baumannii WRAMC #17; format: cell-based, Acinetobacter baumannii
Method in brief: as §2

[9] = system: A. baumannii ATCC #19606; format: cell-based, Acinetobacter baumannii
Method in brief: as §2

[10] = system: A. baumannii WRAMC #15; format: cell-based, Acinetobacter baumannii
Method in brief: as §2

[11] = system: A. baumannii WRAMC #19; format: cell-based, Acinetobacter baumannii
Method in brief: as §2

[12] = system: A. baumannii WRAMC #4; format: cell-based, Acinetobacter baumannii
Method in brief: as §2

[13] = system: A. baumannii WRAMC #16; format: cell-based, Acinetobacter baumannii
Method in brief: as §2

[14] = system: A. baumannii WRAMC #11; format: cell-based, Acinetobacter baumannii
Method in brief: as §2

[15] = system: A. baumannii WRAMC #18; format: cell-based, Acinetobacter baumannii
Method in brief: as §2

KKVVFKVKFK-NH2 [KSL, Lys-Lys-Val-Val-Phe-Lys-Val-Lys-Phe-Lys-NH2]
KSL adsorbed to HA discs [1]: approximately 20%
time to adsorption equilibrium [1]: ≤ 5 min
half-life at 200 μg/ml ([2]; pH 4): 165 days
half-life at 200 μg/ml ([2]; pH 7.4): 13.8 days
half-life at 200 μg/ml ([2]; pH 9): 4.7 days
Activation energy (Ea) of degradation ([2]; pH 4): 6.7 kcal/mol
MBC [3]: >200 µg/mL
MIC [3]: >200 µg/mL
MBC [4]: >200 µg/mL
MIC [4]: >200 µg/mL
MBC [5]: 100 µg/mL
MBC [6]: 100 µg/mL
MBC [7]: 100 µg/mL
MBC [8]: 100 µg/mL
MBC [9]: 200 µg/mL
MIC [9]: 100 µg/mL
MBC [10]: >200 µg/mL
MIC [10]: 100 µg/mL
MBC [11]: 50 µg/mL
MBC [12]: 25 µg/mL
MIC [12]: 12.5 µg/mL
MBC [13]: 25 µg/mL
MBC [14]: 200 µg/mL
MIC [14]: 100 µg/mL
MBC [15]: 200 µg/mL
MIC [15]: 50 µg/mL
